Experimental data from paper PMC13267291, “In vivo functional profiling and structural characterization of the human GLP1R A316T variant” (Science Advances, 2026).

Key:
[1] = tested on: SNAP/FLAG-hGLP1R^A316T versus ^WT; test: GLP-1R ubiquitination assay; assay type: cell-based, rat; conditions: 100 nM, 10 min; n = 5; Fig. 8K
Procedure: INS-1 832/3 Glp1r-/- SNAP/FLAG-hGLP1RWT or A316T cells plated onto 6- cm dishes were stimulated ± 100 nM exendin-4 for 10 min, washed with PBS and osmotically lysed in lysis buffer (50 mM tris-HCl, pH 7.4, 150 mM NaCl, 1% Triton X-100, 1 mM EDTA) with 1% protease inhibitor (Roche) and 1% phosphatase inhibitor cocktail (Sigma-Aldrich) at 4°C. Cell lysates were centrifuged at 12,000 g and 4°C for 10 min prior to the addition of 40 μL anti- FLAG M2 beads (A2220, Sigma-Aldrich) and overnight rotating incubation at 4°C to increase FLAG-tag binding efficiency. Samples were then centrifuged at 5,000 g for 30 s, bead pellets washed 3x in 500 μL wash buffer (50 mM Tris-HCl, 150 mM NaCl, pH 7.4), and proteins eluted with 2x urea buffer at 37°C for 10 min before Western blot analysis with anti-ubiquitin antibody (1:1,000; sc-8017, Santa Cruz Biotechnology) and sheep anti-mouse HRP secondary (1:5,000; ab6808, Abcam) followed by stripping and reblotting with anti-SNAP antibody as above to assess immunoprecipitated receptor per sample. GLP-1R ubiquitination was calculated from ubiquitin over SNAP band intensity levels under the different conditions tested using Fiji.
LC- MS/MS G LP-1R interactome analysis
INS-1 832/3 Glp1r-/- SNAP/FLAG-hGLP1RWT or A316T cells were plated onto 6-cm dishes and stimulated with vehicle or 100 nM GLP-1RA for 5 min as previously described (63). […]

[2] = tested on: SNAP/FLAG-hGLP1R^A316T versus ^WT; test: GLP-1R conformational ECD opening TR-FRET assay; assay type: cell-based, human; conditions: serial doses, 30 min; n = 5; Fig. 8E
Procedure: Nb37 bystander NanoBiT assays
INS-1 832/3 Glp1r-/- cells were seeded in 6-well plates and co-transfected with the following plasmids:
200 ng pSNAP/FLAG-hGLP1RWT or A316T, 500 ng Gαs (human, short isoform), 500 ng Gβ1 (human), 500 ng Gγ2 (human), 100 ng RIC8B (human, isoform 2), and either 100 ng LgBiT-CAAX (KRAS CAAX motif N-terminally fused with LgBiT) or 500 ng Endofin-LgBiT (Endofin FYVE domain C-terminally fused with LgBiT), plus 100 ng (plasma membrane assay) or 500 ng (endosomal assay) SmBiT-Nb37 [Nb37 cDNA synthesised by GenScript C- terminally fused to SmBiT with a 15 amino acid flexible linker (123) ] and adjusted for total DNA with pcDNA3.1 for the LgBiT-CAAX transfection. 24 hours after transfection, cells were exposed to NanoGlo Live Cell Reagent (Promega) with furimazine (1:20 dilution) and bioluminescence read in a Flexstation 3 plate reader for 8 min before and 30 min after stimulation by […]
AUCs were calculated for each agonist concentration and fitted to log(agonist) versus response four-parameter curves using GraphPad Prism 10.1.2, with logEC50 (potency) and Emax (efficacy) calculated for each replicate dose response curve. Baseline endosomal over plasma membrane bioluminescence ratios were also calculated.
GLP- 1R conformational ECD opening time resolved-fluorescence resonance energy transfer (TR- […]
signal serially monitored for 30 min. […]

Substance: exendin-4
- Effect of agonist stimulation on WT GLP-1R ubiquitination level [1]: did not affect
- Effect of agonist stimulation on ubiquitination of the A316T receptor [1]: significantly increased

Substance: GLP-1(7-36)NH2
- TR-FRET (ECD opening) in response to agonist, A316T versus WT [2]: significantly increased
